Reference: article PMC9639207 (RSC Advances, 2022)

Experiments:
[1] = biological target: dipeptidyl peptidase-IV (DPP-IV) (Homo sapiens, UniProt P27487); test: In vitro proteolytic stability against DPP-IV; assay type: in vitro ADME; conditions: isolated enzyme dpp iv, pH 7.4
[2] = In vitro stability on incubation with mouse serum; assay type: in vitro ADME; conditions: mouse, serum

Sequence of dipeptidyl peptidase-IV (DPP-IV) (P27487 whole entry, species assumed): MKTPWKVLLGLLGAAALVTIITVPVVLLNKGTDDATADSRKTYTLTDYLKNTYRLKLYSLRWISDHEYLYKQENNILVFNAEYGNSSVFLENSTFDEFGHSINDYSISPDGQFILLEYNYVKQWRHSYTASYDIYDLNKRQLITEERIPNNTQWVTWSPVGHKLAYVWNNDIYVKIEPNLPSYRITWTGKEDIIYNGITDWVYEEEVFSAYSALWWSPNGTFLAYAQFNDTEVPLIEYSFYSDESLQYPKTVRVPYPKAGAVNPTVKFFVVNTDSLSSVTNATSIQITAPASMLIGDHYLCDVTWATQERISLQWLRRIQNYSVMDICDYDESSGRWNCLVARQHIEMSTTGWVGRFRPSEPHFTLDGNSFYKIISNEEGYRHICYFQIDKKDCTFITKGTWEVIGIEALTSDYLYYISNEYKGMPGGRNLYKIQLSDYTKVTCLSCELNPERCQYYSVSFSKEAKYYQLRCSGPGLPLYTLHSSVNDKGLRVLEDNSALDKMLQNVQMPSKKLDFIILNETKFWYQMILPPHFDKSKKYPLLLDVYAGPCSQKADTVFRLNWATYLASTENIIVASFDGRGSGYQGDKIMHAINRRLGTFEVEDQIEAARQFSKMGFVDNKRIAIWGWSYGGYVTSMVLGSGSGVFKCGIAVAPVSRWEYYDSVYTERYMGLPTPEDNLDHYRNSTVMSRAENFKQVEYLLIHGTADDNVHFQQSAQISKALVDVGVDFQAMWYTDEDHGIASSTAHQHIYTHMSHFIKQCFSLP

Row | Structure (SMILES) | half-life [1] | half-life at 200 µM [2]
1 | CC[C@H](C)[C@H](NC(=O)[C@H](Cc1ccccc1)NC(=O)[C@H](CCC(=O)O)NC(=O)[C@H](CCCCN)NC(=O)[C@H](C)NC(=O)[C@H](C)NC(=O)[C@H](CCC(N)=O)NC(=O)CNC(=O)[C@H](CCC(=O)O)NC(=O)[C@H](CC(C)C)NC(=O)[C@H](Cc1ccc(O)cc1)NC(=O)[C@H](CO)NC(=O)[C@H](CO)NC(=O)[C@@H](NC(=O)[C@H](CC(=O)N[C@@H]1O[C@H](CO)[C@@H](O)[C@H](O)[C@H]1O)NC(=O)[C@H](CO)NC(=O)[C@@H](NC(=O)[C@H](Cc1ccccc1)NC(=O)[C@@H](NC(=O)CNC(=O)[C@H](CCC(=O)O)NC(=O)[C@H](C)NC(=O)[C@@H](N)Cc1c[nH]cn1)[C@@H](C)O)[C@@H](C)O)C(C)C)C(=O)N[C@@H](C)C(=O)N[C@@H](Cc1c[nH]c2ccccc12)C(=O)N[C@@H](CC(C)C)C(=O)N[C@H](C(=O)N[C@@H](CCCCN)C(=O)NCC(=O)N[C@@H](CCCNC(=N)N)C(=O)NCC(=O)O)C(C)C [Glc-GLP-1-1] | 30.2 ± 2.4 min | 94.1 ± 7.6 min
2 | CC[C@H](C)[C@H](NC(=O)[C@H](CO)NC(=O)[C@H](CCC(=O)O)NC(=O)[C@H](CC(=O)N[C@@H]1O[C@H](CO)[C@@H](O)[C@H](O)[C@H]1O)NC(=O)[C@H](C)NC(=O)[C@H](C)NC(=O)[C@H](CCC(N)=O)NC(=O)CNC(=O)[C@H](CCC(=O)O)NC(=O)[C@H](CC(C)C)NC(=O)[C@H](Cc1ccc(O)cc1)NC(=O)[C@H](CO)NC(=O)[C@H](CO)NC(=O)[C@@H](NC(=O)[C@H](CC(=O)O)NC(=O)[C@H](CO)NC(=O)[C@@H](NC(=O)[C@H](Cc1ccccc1)NC(=O)[C@@H](NC(=O)CNC(=O)[C@H](CCC(=O)O)NC(=O)[C@H](C)NC(=O)[C@@H](N)Cc1c[nH]cn1)[C@@H](C)O)[C@@H](C)O)C(C)C)C(=O)N[C@@H](C)C(=O)N[C@@H](Cc1c[nH]c2ccccc12)C(=O)N[C@@H](CC(C)C)C(=O)N[C@H](C(=O)N[C@@H](CCCCN)C(=O)NCC(=O)N[C@@H](CCCNC(=N)N)C(=O)NCC(=O)O)C(C)C [Glc-GLP-1-3] | 46.1 ± 3.5 min | 139 ± 14.5 min
3 | CC[C@H](C)[C@H](NC(=O)[C@H](Cc1ccccc1)NC(=O)[C@H](CCC(=O)O)NC(=O)[C@H](CCCCN)NC(=O)[C@H](C)NC(=O)[C@H](C)NC(=O)[C@H](CCC(N)=O)NC(=O)CNC(=O)[C@H](CCC(=O)O)NC(=O)[C@H](CC(C)C)NC(=O)[C@H](Cc1ccc(O)cc1)NC(=O)[C@H](CO)NC(=O)[C@H](CO)NC(=O)[C@@H](NC(=O)[C@H](CC(=O)O)NC(=O)[C@H](CO)NC(=O)[C@@H](NC(=O)[C@H](Cc1ccccc1)NC(=O)[C@@H](NC(=O)CNC(=O)[C@H](CCC(=O)O)NC(=O)[C@H](C)NC(=O)[C@@H](N)Cc1c[nH]cn1)[C@@H](C)O)[C@@H](C)O)C(C)C)C(=O)N[C@@H](C)C(=O)N[C@@H](Cc1c[nH]c2ccccc12)C(=O)N[C@@H](CC(C)C)C(=O)N[C@H](C(=O)N[C@@H](CC(=O)N[C@@H]1O[C@H](CO)[C@@H](O)[C@H](O)[C@H]1O)C(=O)NCC(=O)N[C@H](C(=O)NCC(=O)O)[C@@H](C)O)C(C)C [Glc-GLP-1-5] | 32.5 ± 1.4 min | 113 ± 11.8 min
